These results are taken from publication PMC10634366 (Microbiology, 2023).

The target of test [1] is T1, Asuc_0142 (DcuAAs) (Actinobacillus succinogenes, UniProt A6VKM5).
T1 construct: full-length gene from 130Z genomic DNA in pBAD30-derived pMB61 (pMB147), expressed in E. coli IMW529 lacking DcuA, DcuB, DcuC, TtdT and CitT
As to the kind of experiment: inhibition of […] min […]fumarate uptake, E. coli IMW529 cells. In kind it is cell-based. To be noted: read-out: % inhibition at 1 mM.

In test [2] the target is T1, Asuc_0142 (DcuAAs). Described as above. To be noted: 100 µM [14C]fumarate; anaerobic, pH 7, 37 °C. Type of test: cell-based.

Usually inhibition stands for how much of the control response was suppressed. Regarding `N[C@@H](CC(=O)O)C(=O)O` [L-aspartate], the inhibition at 1000 µM at Asuc_0142 (DcuAAs) [1] amounted to 95%. Consider `O=C(O)C[C@H](O)C(=O)O` [L-malate], for which the “% inhibition at 1 mM” value at Asuc_0142 (DcuAAs) [2] is “the inhibition by succinate and L-malate was only moderate”. In the case of `O=C(O)/C=C/C(=O)O` [fumarate], at Asuc_0142 (DcuAAs) [1], the inhibition at 1000 µM turned out to be 82%.

Consider `O=C(O)CCC(=O)O` [succinate], for which, at Asuc_0142 (DcuAAs) [2], the “% inhibition at 1 mM” value is “the inhibition by succinate and L-malate was only moderate”.
